Laboratory results from PubChem BioAssay (NCI).
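Following 48 hours of exposure in 96-well plates, responses at five concentrations were used to interpolate endpoints linearly. At the GI50, growth is halved. TGI denotes the concentration required for complete inhibition of growth.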

Assays:
Assay in all cases: DTP human tumour cell line panel, 48 h
SK-OV-3 ovarian = tested on: SK-OV-3 ovarian
HT29 colon = tested on: HT29 colon
BT-549 breast = tested on: BT-549 breast
OVCAR-4 ovarian = tested on: OVCAR-4 ovarian
UACC-62 melanoma = tested on: UACC-62 melanoma
HOP-92 NSCLC = tested on: HOP-92 NSCLC
M14 melanoma = tested on: M14 melanoma
SR leukemia = tested on: SR leukemia
CCRF-CEM leukemia = tested on: CCRF-CEM leukemia
DU-145 prostate = tested on: DU-145 prostate
SNB-19 CNS = tested on: SNB-19 CNS
SF-539 CNS = tested on: SF-539 CNS
SN12C renal = tested on: SN12C renal
OVCAR-8 ovarian = tested on: OVCAR-8 ovarian
MOLT-4 leukemia = tested on: MOLT-4 leukemia
OVCAR-3 ovarian = tested on: OVCAR-3 ovarian
HS 578T breast = tested on: HS 578T breast
786-0 renal = tested on: 786-0 renal
HCT-15 colon = tested on: HCT-15 colon
SK-MEL-28 melanoma = tested on: SK-MEL-28 melanoma
NCI/ADR-RES ovarian = tested on: NCI/ADR-RES ovarian
TK-10 renal = tested on: TK-10 renal
HCC-2998 colon = tested on: HCC-2998 colon
SW-620 colon = tested on: SW-620 colon
CAKI-1 renal = tested on: CAKI-1 renal
COLO 205 colon = tested on: COLO 205 colon
NCI-H460 lung = tested on: NCI-H460 lung
HL-60(TB) leukemia = tested on: HL-60(TB) leukemia
SK-MEL-5 melanoma = tested on: SK-MEL-5 melanoma
MALME-3M melanoma = tested on: MALME-3M melanoma
OVCAR-5 ovarian = tested on: OVCAR-5 ovarian
MDA-MB-435 = tested on: MDA-MB-435
NCI-H23 lung = tested on: NCI-H23 lung
SF-268 CNS = tested on: SF-268 CNS
RPMI-8226 leukemia = tested on: RPMI-8226 leukemia
U251 CNS = tested on: U251 CNS
T-47D breast = tested on: T-47D breast
SNB-75 CNS = tested on: SNB-75 CNS
KM12 colon = tested on: KM12 colon
ACHN renal = tested on: ACHN renal
UO-31 renal = tested on: UO-31 renal
SF-295 CNS = tested on: SF-295 CNS
K-562 leukemia = tested on: K-562 leukemia
EKVX NSCLC = tested on: EKVX NSCLC
HCT-116 colon = tested on: HCT-116 colon
A498 renal = tested on: A498 renal
UACC-257 melanoma = tested on: UACC-257 melanoma
A549 NSCLC = tested on: A549 NSCLC
NCI-H226 lung = tested on: NCI-H226 lung
MCF7 breast = tested on: MCF7 breast
PC-3 prostate = tested on: PC-3 prostate
MDA-MB-468 breast = tested on: MDA-MB-468 breast
MDA-MB-231 breast = tested on: MDA-MB-231 breast
NCI-H522 lung = tested on: NCI-H522 lung
SK-MEL-2 melanoma = tested on: SK-MEL-2 melanoma
LOX IMVI melanoma = tested on: LOX IMVI melanoma
IGROV1 ovarian = tested on: IGROV1 ovarian
RXF 393 renal = tested on: RXF 393 renal
HOP-62 NSCLC = tested on: HOP-62 NSCLC

In the case of `O=C1CCC(N2Cc3cc(CC(=O)Nc4ccc(N5CCCCC5)cc4)ccc3C2=O)C(=O)N1` (centres undefined), the GI50 (SK-OV-3 ovarian) is reported as 12.9 µM, the TGI (SK-OV-3 ovarian) is reported as > 100 µM and the GI50 (HT29 colon) is reported as 19 µM. The TGI (HT29 colon) was > 100 µM, the GI50 (BT-549 breast) was < 0.01 µM and the TGI (BT-549 breast) was 0.927 µM. For the same molecule, the GI50 (OVCAR-4 ovarian) was 23.4 µM, the TGI (OVCAR-4 ovarian) was > 100 µM and the GI50 (UACC-62 melanoma) was 36.3 µM. For the same molecule, the TGI (UACC-62 melanoma) was > 100 µM, the GI50 (HOP-92 NSCLC) was < 0.01 µM and the TGI (HOP-92 NSCLC) was > 100 µM. The GI50 (M14 melanoma) was 0.432 µM, the TGI (M14 melanoma) was > 100 µM and the GI50 (SR leukemia) was > 100 µM. For the same molecule, the TGI (SR leukemia) was > 100 µM, the GI50 (CCRF-CEM leukemia) was < 0.01 µM and the GI50 (DU-145 prostate) was > 81.6 µM. For the same molecule, the TGI (DU-145 prostate) was > 100 µM, the GI50 (SNB-19 CNS) was 0.0594 µM and the TGI (SNB-19 CNS) was > 100 µM. For the same molecule, the GI50 (SF-539 CNS) was 25.1 µM, the TGI (SF-539 CNS) was > 100 µM and the GI50 (SN12C renal) was 0.632 µM. For the same molecule, the TGI (SN12C renal) was > 90.8 µM, the GI50 (OVCAR-8 ovarian) was < 0.01 µM and the TGI (OVCAR-8 ovarian) was > 100 µM. The GI50 (MOLT-4 leukemia) was < 0.01 µM, the TGI (MOLT-4 leukemia) was > 100 µM and the GI50 (OVCAR-3 ovarian) was 23.2 µM. The TGI (OVCAR-3 ovarian) was > 100 µM, the GI50 (HS 578T breast) was < 0.0166 µM and the TGI (HS 578T breast) was > 100 µM. The GI50 (786-0 renal) was 1.43 µM, the TGI (786-0 renal) was > 100 µM and the GI50 (HCT-15 colon) was 0.0368 µM. The TGI (HCT-15 colon) was > 100 µM, the GI50 (SK-MEL-28 melanoma) was > 60.4 µM and the TGI (SK-MEL-28 melanoma) was > 100 µM. The GI50 (NCI/ADR-RES ovarian) was 4.34 µM, the TGI (NCI/ADR-RES ovarian) was > 100 µM and the GI50 (TK-10 renal) was 1.58 µM. For the same molecule, the TGI (TK-10 renal) was > 100 µM, the GI50 (HCC-2998 colon) was 0.0174 µM and the TGI (HCC-2998 colon) was > 100 µM. For the same molecule, the GI50 (SW-620 colon) was < 0.0144 µM, the TGI (SW-620 colon) was > 100 µM and the GI50 (CAKI-1 renal) was 2.06 µM. For the same molecule, the TGI (CAKI-1 renal) was > 100 µM, the GI50 (COLO 205 colon) was 0.0118 µM and the TGI (COLO 205 colon) was > 100 µM. The GI50 (NCI-H460 lung) was > 100 µM, the TGI (NCI-H460 lung) was > 100 µM and the GI50 (HL-60(TB) leukemia) was < 0.01 µM. The GI50 (SK-MEL-5 melanoma) was 1.76 µM, the TGI (SK-MEL-5 melanoma) was > 100 µM and the GI50 (MALME-3M melanoma) was < 0.01 µM. The TGI (MALME-3M melanoma) was 0.0124 µM, the GI50 (OVCAR-5 ovarian) was 0.24 µM and the TGI (OVCAR-5 ovarian) was > 100 µM. The GI50 (MDA-MB-435) was > 100 µM, the TGI (MDA-MB-435) was > 100 µM and the GI50 (NCI-H23 lung) was > 100 µM. The TGI (NCI-H23 lung) was > 100 µM, the GI50 (SF-268 CNS) was 40.7 µM and the TGI (SF-268 CNS) was > 100 µM. The GI50 (RPMI-8226 leukemia) was 20.1 µM, the TGI (RPMI-8226 leukemia) was > 100 µM and the GI50 (U251 CNS) was 46.8 µM. For the same molecule, the TGI (U251 CNS) was > 100 µM, the GI50 (T-47D breast) was < 0.01 µM and the TGI (T-47D breast) was > 100 µM. It also gave a GI50 (SNB-75 CNS) of 0.0288 µM, a TGI (SNB-75 CNS) of 99.2 µM and a GI50 (KM12 colon) of 2.37 µM. The TGI (KM12 colon) was > 100 µM, the GI50 (ACHN renal) was > 100 µM and the TGI (ACHN renal) was > 100 µM. The GI50 (UO-31 renal) was 0.0782 µM, the TGI (UO-31 renal) was > 100 µM and the GI50 (SF-295 CNS) was > 96.3 µM. For the same molecule, the TGI (SF-295 CNS) was > 100 µM, the GI50 (K-562 leukemia) was > 56.1 µM and the TGI (K-562 leukemia) was > 100 µM. For the same molecule, the GI50 (EKVX NSCLC) was > 34.5 µM, the TGI (EKVX NSCLC) was > 100 µM and the GI50 (HCT-116 colon) was > 100 µM. For the same molecule, the TGI (HCT-116 colon) was > 100 µM, the GI50 (A498 renal) was 0.164 µM and the TGI (A498 renal) was > 85.2 µM. For the same molecule, the GI50 (UACC-257 melanoma) was > 100 µM, the TGI (UACC-257 melanoma) was > 100 µM and the GI50 (A549 NSCLC) was 24.2 µM. For the same molecule, the TGI (A549 NSCLC) was > 100 µM, the GI50 (NCI-H226 lung) was 0.0398 µM and the TGI (NCI-H226 lung) was 23.3 µM. The GI50 (MCF7 breast) was 12.4 µM, the TGI (MCF7 breast) was > 100 µM and the GI50 (PC-3 prostate) was < 0.0108 µM. The TGI (PC-3 prostate) was > 100 µM, the GI50 (MDA-MB-468 breast) was < 0.01 µM and the TGI (MDA-MB-468 breast) was < 0.0282 µM. For the same molecule, the GI50 (MDA-MB-231 breast) was < 0.01 µM, the GI50 (NCI-H522 lung) was > 72.9 µM and the TGI (NCI-H522 lung) was > 100 µM. The GI50 (SK-MEL-2 melanoma) was 2.16 µM, the TGI (SK-MEL-2 melanoma) was > 100 µM and the GI50 (LOX IMVI melanoma) was > 100 µM. The TGI (LOX IMVI melanoma) was > 100 µM, the GI50 (IGROV1 ovarian) was < 0.0104 µM and the TGI (IGROV1 ovarian) was > 100 µM. For the same molecule, the GI50 (RXF 393 renal) was 9.66 µM, the TGI (RXF 393 renal) was > 100 µM and the GI50 (HOP-62 NSCLC) was < 0.01 µM.
